According to paper PMC12598866, “A Comparative Study of Virucidal and Virustatic Multivalent Entry Inhibitors” (The Journal of Physical Chemistry. B, 2025):
Like-named read-outs stand apart in the source and are kept apart here.

How the values were obtained:
[1] = Cytotoxicity assay on Vero cells (MTS); assay type: cell-based; details: African green monkey
Experimental: Cytotoxicity assay was performed on the Vero cell line with the MTS assay. The cells were plated for 24 h in DMEM medium containing 10% FBS and 1% penicillin/streptomycin with a seeding density of 2 × 10^4 per well in a 96-well plate. […] Then, the cells were washed with PBS twice, followed by the addition of 20 μL MTS reagents together with 80 μL DMEM medium. They were then incubated at 37 °C for 4 h. The cell viability was checked by absorbance at 490 nm with a plate reader.

Flu B = assay: Influenza inhibition assay (ICC on MDCK cells); assay type: cell-based; details: dose–response
HSV-1 [2] = assay: HSV-1 inhibition assay (plaque reduction on Vero cells); assay type: cell-based, herpes simplex virus type 1; details: Human alphaherpesvirus 1, dose–response
Experimental: The inhibitory effect of compounds on HSV-1 was evaluated by plaque reduction assay. Vero cells were plated 24 h before the experiment in 24-well plates at a density of 10^5 cells/well. Serial dilutions of compounds in DMEM medium (2% FBS, 1% P/S) were prepared, followed by the addition of aliquots of HSV-1 such that the final titer of the virus is […] (with MOI = 0.0005). Compounds/virus mixtures were incubated at 37 °C for 1 h and added to the cells (250 μL/well). Followed by incubation at 37 °C for 1 h, the viral inoculum was removed. The cells were overlaid with DMEM medium containing 1.2% methylcellulose, 2% FBS, and 1% P/S. After 3 days of incubation at 37 °C, 5% CO2, the cells were fixed and stained with 0.1% crystal violet in 20% ethanol, and plaques were counted. Each group of experiments in the inhibition assay was performed in triplicate. The concentration producing a 50% reduction in plaque formation was determined using the Prism 10 software (GraphPad Software, USA) by comparing compound-treated and untreated cells. Infectivity was calculated as the number of plaques in compound-treated cells/number of plaques in untreated cells × 100%.

[3] = Partition coefficient octanol/water (UV-vis); assay type: physicochemical
Experimental: UV–vis spectroscopy was employed first to determine the correct dilution of all compounds. The seven compounds in this study were B3C11SO4, B3C11SO3, B3C6SO3, B3C6SO4, C4C11SO4, C4C11SO3, and C4C3SO3. The protocol is the same for all the compounds: in the beginning, all compounds were dissolved in water at a concentration of 1 mg/mL. The solution was put into a quartz cuvette and then into the UV–vis spectrometer, where the absorbance from wavelengths 600 to 190 nm was investigated. All of the samples presented a peak in absorbance around 200 nm. The samples were diluted further until the absorbance peak reached values near 0.90.
A biphasic solution composed of 1.5 mL of a water solution of antiviral +1.5 mL of octanol was thoroughly mixed for 60 min. After the mixing, the two phases were separated by centrifugation for 1 min using a benchtop centrifuge at 5000 rpm. The water phase saturated in octanol and the octanol phase saturated with water were extracted and characterized by UV–vis spectrometry.
The partition coefficient (log P) was then calculated using formula : logP=log(Absorbanceofoctanolphase/Absorbanceofwaterphase) 1

[4] = CMC assay (conductivity method); assay type: physicochemical; details: in water
Experimental: The CMC of antiviral compounds was measured by the conductivity method. Antiviral compounds were diluted into water at different concentrations, and the conductivity (μS/cm) was measured at each concentration with a conductivity meter (Mettler Toledo, Switzerland). The CMC was identified as the point on the conductivity-concentration plot where the slope changed.

BSA = biological target: T1, BSA (Bos taurus, UniProt P02769); assay: Isothermal titration calorimetry with BSA; assay type: binding, bovine; details: ITC, H2O
T1 construct: purchased Sigma-Aldrich
T1 sequence (P02769 25-607): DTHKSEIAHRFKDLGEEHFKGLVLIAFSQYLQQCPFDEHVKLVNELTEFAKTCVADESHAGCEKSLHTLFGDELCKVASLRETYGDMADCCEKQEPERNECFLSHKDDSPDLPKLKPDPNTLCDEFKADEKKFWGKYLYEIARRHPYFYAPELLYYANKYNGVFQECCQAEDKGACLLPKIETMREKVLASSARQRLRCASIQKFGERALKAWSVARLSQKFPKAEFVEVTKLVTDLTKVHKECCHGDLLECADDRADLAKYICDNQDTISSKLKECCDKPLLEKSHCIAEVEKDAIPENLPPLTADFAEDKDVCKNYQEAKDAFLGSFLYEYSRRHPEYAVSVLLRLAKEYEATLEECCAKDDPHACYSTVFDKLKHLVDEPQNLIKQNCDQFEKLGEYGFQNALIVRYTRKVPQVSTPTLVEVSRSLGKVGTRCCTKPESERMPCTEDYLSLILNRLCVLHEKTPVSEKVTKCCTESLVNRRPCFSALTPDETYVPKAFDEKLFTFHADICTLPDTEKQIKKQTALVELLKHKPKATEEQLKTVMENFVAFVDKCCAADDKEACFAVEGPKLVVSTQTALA

HSV-2 [5] = assay: HSV-2 inhibition assay (plaque reduction on Vero cells, pretreatment); assay type: cell-based, herpes simplex virus type 2; details: for IC99: HSV-2 inhibition, concentration intended to inhibit infection by at least 90 and 99%; for IC50: Human alphaherpesvirus 2, Vero, dose–response, Vero cells
Experimental: The inhibitory effect of compounds on HSV-2 was evaluated by plaque reduction assay. Vero cells were plated 24 h before the experiment in 24-well plates with a seeding density of 10^5 cells/well. Serial dilutions of compounds in DMEM medium (2% FBS, 1% P/S) were prepared, followed by the addition of aliquots of HSV-2 such that the final titer of the virus was 200 pfu/mL (with MOI = 0.0005). Compounds/virus mixtures were incubated at 37 °C for 1 h and added to the cells (250 μL/well). Followed by incubation at 37 °C for 1 h, the viral inoculum was removed. The cells were overlaid with DMEM medium containing 1.2% methylcellulose, 2% FBS, and 1% P/S. After 48 h of incubation at 37 °C, 5% CO2, the cells were fixed and stained with 0.1% crystal violet in 20% ethanol. Finally, the plaques were counted. Each group of experiments in the inhibition assay was performed in triplicate. The concentration producing a 50% reduction in plaque formation was determined using Prism 10 software (GraphPad Software, USA) by comparing compound-treated and untreated cells. Infectivity was calculated as the number of plaques in compound-treated cells/number of plaques in untreated cells × 100%.

H1N1N09 = assay: Influenza inhibition assay (ICC on MDCK cells); assay type: cell-based, Influenza A/Netherlands/602/2009 (H1N1); details: Influenza A virus, dose–response
HSV-2 [6] = assay: Growth of viruses in the presence of compounds (posttreatment), HSV-2; assay type: cell-based, herpes simplex virus type 2; details: posttreatment condition, Vero cells
H3N2 = assay: Influenza inhibition assay (ICC on MDCK cells, pretreatment); assay type: cell-based; details: Influenza A virus
HSV-2 [7] = test system: HSV-2; design: method as in Zhu et al., 2024 (citation number not given); details: earlier paper of the authors on benzene-core MEIs; ref Zhu et al., 2024 (citation number not given); read-out: IC50 against HSV-2; cited from earlier work
HSV-2 [8] = assay: HSV-2 inhibition assay (plaque reduction on Vero cells, pretreatment); assay type: cell-based, herpes simplex virus type 2; details: Human alphaherpesvirus 2, Vero, pretreatment condition
[9] = Cytotoxicity assay for MDCK (MTT); assay type: cell-based; details: dog, MDCK cells
Experimental: MTT assay was used to evaluate the cytotoxicity on MDCK cells. 10^4 cells per well were seeded in a 96-well plate 1 day before the assay. A dose range of each drug (from 4.11 μM to 1000 μM) was added to the cells in serum-free medium for MDCK cells. The antivirals were incubated on the cells for 24 h at 37 °C. After incubation, the cells were washed, and MTT reagent (Promega) was added to the cells for 4 h at 37 °C according to the manufacturer’s instructions. The cells were then washed, and 50 μL of DMSO was added to free the reagent. Subsequently, the absorbance was read at 579 nm. Percentages of viability were calculated by comparing the absorbance in treated wells and untreated conditions.

H1N1 clinical = assay: Influenza inhibition assay (ICC on MDCK cells); assay type: cell-based; details: Influenza A virus, dose–response
[10] = biological target: glycoprotein D (gD) of HSV; assay: Isothermal titration calorimetry with glycoprotein D; assay type: binding; details: ITC, 25°C
Experimental: Isothermal titration calorimetry (ITC) experiments were conducted using ITC200 instruments (GE Healthcare, USA) equipped with a 200 μL sample cell and a 40 μL syringe. Thirteen injections were applied. The first data point was excluded. BSA protein and viral protein concentrations in the cell were approximately 50 μM and 1 mg/mL, respectively, and ligand concentrations in the syringe were roughly 2 mM. They were centrifuged at 2000g for 2 min to remove bubbles. The titration was performed at 25 or 37 °C, with data analyzed using MicroCal PEAQ ITC software. Baseline correction was applied, and Nitpic/Sedphat was used for automated integration to ensure precise binding parameter determination.

HSV-2 [11] = assay: HSV-2 virucidal assay; assay type: cell-based, herpes simplex virus type 2; details: virucidal titration at 90–99% viral inhibition concentration, Vero cells
HSV-1 [12] = test system: HSV-1
[13] = dose–response, read-out: IC50 H3N2
[14] = pretreatment condition, read-out: pretreatment IC50, H3N2

O=S(=O)(O)OCCCCCCSCc1cc(CSCCCCCCOS(=O)(=O)O)cc(CSCCCCCCOS(=O)(=O)O)c1 [B3C6SO4]
CC50 at 48 h [1]: > 1000 µM
IC50 (Flu B): > 1000 µM
IC50 (HSV-1 [2]): 208 ± 31.4 µM
logP [3]: -1.79
CMC [4]: 1390 ± 45.6 µM
-∆TS (BSA) (BSA; 25 °C (Table S3)): 7.2 kcal/mol
Kd (BSA; 25 °C (Table S3)): 7.27 µM
N (BSA) (BSA; 25 °C (Table S3)): 1.69
∆G (BSA) (BSA; 25 °C (Table S3)): -7.29 kcal/mol
∆H (BSA) (BSA; 25 °C (Table S3)): -14.5 kcal/mol
-∆TS (BSA) (BSA; 37 °C (Table S3)): 0.938 kcal/mol
Kd (BSA; 37 °C (Table S3)): 1.4 µM
N (BSA) (BSA; 37 °C (Table S3)): 1.3
∆G (BSA) (BSA; 37 °C (Table S3)): -7.99 kcal/mol
∆H (BSA) (BSA; 37 °C (Table S3)): -8.93 kcal/mol
IC99 (HSV-2 [5]): 1328 ± 1.9 µM
IC50 (HSV-2 [5]): 52.9 ± 1.9 µM
IC50 (H1N1N09): 346.9 ± 1.94 µM
IC50 (HSV-2 [6]; Human alphaherpesvirus 2, Vero): 56.9 ± 1.48 µM
IC50 (H3N2; [13]): > 1000 µM
IC50 (H3N2; [14]): 346.9 ± 1.94 µM
IC50 (HSV-2 [7]): 78.4 µM
IC50 (HSV-2 [8]): 52.9 ± 1.9 µM
CC50 at 24 h [9]: > 1000 µM
IC50 (H1N1 clinical): > 1000 µM
Kd [10]: 28.1 µM

O=S(=O)(O)CCCSCc1cc2c(cc1CSCCCS(=O)(=O)O)OCCOCCOc1cc(CSCCCS(=O)(=O)O)c(CSCCCS(=O)(=O)O)cc1OCCOCCO2 [C4C3SO3]
CC50 at 48 h [1]: > 1000 µM
IC50 (Flu B): > 1000 µM
IC50 (HSV-1 [2]): 551.9 ± 2 µM
Virucidal activity, HSV-2 (HSV-2 [11]): S
logP [3]: -2.45
CMC [4]: 462.69 ± 57 µM
N (binding sites, BSA) (BSA; 25 °C (Table 5)): 0.5
ΔG (BSA) (BSA; 25 °C (Table 5)): –5.73 kcal/mol
ΔH (BSA) (BSA; 25 °C (Table 5)): –7.34 kcal/mol
–ΔTS (BSA) (BSA; 25 °C (Table 5)): 1.61 kcal/mol
Kd (BSA; 25 °C (Table 5), read-out: K d (BSA)): 63 µM
-∆TS (BSA) (BSA; 25 °C (Table S3)): 1.61 kcal/mol
N (BSA) (BSA; 25 °C (Table S3)): 0.5
∆G (BSA) (BSA; 25 °C (Table S3)): -5.73 kcal/mol
∆H (BSA) (BSA; 25 °C (Table S3)): -7.34 kcal/mol
-∆TS (BSA) (BSA; 37 °C (Table S3)): 24.6 kcal/mol
Kd (BSA; 37 °C (Table S3)): 52.1 µM
N (BSA) (BSA; 37 °C (Table S3)): 0.397
∆G (BSA) (BSA; 37 °C (Table S3)): -6.08 kcal/mol
∆H (BSA) (BSA; 37 °C (Table S3)): -30.6 kcal/mol
Virucidal activity, V-1 (HSV-1 [12]): S
IC99 (HSV-2 [5]): 446 ± 1.1 µM
IC50 (HSV-2 [5]): 173.4 ± 1.1 µM
IC50 (H1N1N09): > 1000 µM
IC50 (HSV-2 [6]; Human alphaherpesvirus 2, Vero): 69.1 ± 1.01 µM
IC50 (H3N2; [13]): > 1000 µM
IC50 (H3N2; [14]): > 1000 µM
IC50 (HSV-2 [8]): 173.4 ± 1.1 µM
CC50 at 24 h [9]: > 1000 µM

O=S(=O)(O)CCCCCCSCc1cc(CSCCCCCCS(=O)(=O)O)cc(CSCCCCCCS(=O)(=O)O)c1 [B3C6SO3]
CC50 at 48 h [1]: > 1000 µM
IC50 (Flu B): > 1000 µM
IC50 (HSV-1 [2]): 502.3 ± 2.15 µM
Virucidal activity, HSV-2 (HSV-2 [11]): S
logP [3]: -2.39
CMC [4]: 882.2 ± 18.9 µM
K d (BSA) (BSA; 25 °C (Table 5)): no binding
N (binding sites, BSA) (BSA; 25 °C (Table 5)): no binding
ΔG (BSA) (BSA; 25 °C (Table 5)): no binding
ΔH (BSA) (BSA; 25 °C (Table 5)): no binding
–ΔTS (BSA) (BSA; 25 °C (Table 5)): no binding
Virucidal activity, V-1 (HSV-1 [12]): S
IC50 (HSV-2 [5]): 487.3 ± 2.19 µM
IC50 (H1N1N09): > 1000 µM
IC50 (HSV-2 [6]; Human alphaherpesvirus 2, Vero): 180 µM
IC50 (HSV-2 [6]): 181 ± 2.06 µM
IC50 (H3N2; [13]): > 1000 µM
IC50 (H3N2; [14]): > 1000 µM
IC50 (HSV-2 [8]): 487 µM
CC50 at 24 h [9]: > 1000 µM
IC50 (H1N1 clinical): > 1000 µM
Kd [10]: 14.2 µM
